Assay [1] relates to Serine/threonine-protein kinase B-raf (Homo sapiens), P15056 [V600E]. Conditions: at 10 µM.
In assay [2] the target is T1, Serine/threonine-protein kinase Sgk3 (Homo sapiens) (UniProt Q96BR1).
T1 sequence (whole entry): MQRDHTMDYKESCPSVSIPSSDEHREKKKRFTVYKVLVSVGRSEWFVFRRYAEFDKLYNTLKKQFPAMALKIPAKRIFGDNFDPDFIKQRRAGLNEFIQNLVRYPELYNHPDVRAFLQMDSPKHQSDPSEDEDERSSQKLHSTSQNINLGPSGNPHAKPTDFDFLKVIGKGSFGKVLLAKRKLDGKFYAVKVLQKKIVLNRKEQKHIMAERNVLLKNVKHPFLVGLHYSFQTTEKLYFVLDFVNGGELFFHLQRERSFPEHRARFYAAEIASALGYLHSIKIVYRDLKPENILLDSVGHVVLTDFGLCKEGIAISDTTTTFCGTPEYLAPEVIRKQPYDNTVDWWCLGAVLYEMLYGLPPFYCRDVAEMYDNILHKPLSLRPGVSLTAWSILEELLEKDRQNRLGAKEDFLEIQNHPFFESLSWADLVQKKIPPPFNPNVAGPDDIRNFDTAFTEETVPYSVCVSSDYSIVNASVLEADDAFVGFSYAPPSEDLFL
Description: Selectivity interaction (KinomeScan (DiscoverX)) EUB0000655a SGK3. Particulars: at 10 µM.

The target of assay [3] is Phosphatidylinositol 4-kinase beta (Homo sapiens, UniProt Q9UBF8). Kind of assay: Selectivity interaction (KinomeScan (DiscoverX)) EUB0000045b PI4KB.
Chain of Phosphatidylinositol 4-kinase beta (Q9UBF8 2-816 limits assumed): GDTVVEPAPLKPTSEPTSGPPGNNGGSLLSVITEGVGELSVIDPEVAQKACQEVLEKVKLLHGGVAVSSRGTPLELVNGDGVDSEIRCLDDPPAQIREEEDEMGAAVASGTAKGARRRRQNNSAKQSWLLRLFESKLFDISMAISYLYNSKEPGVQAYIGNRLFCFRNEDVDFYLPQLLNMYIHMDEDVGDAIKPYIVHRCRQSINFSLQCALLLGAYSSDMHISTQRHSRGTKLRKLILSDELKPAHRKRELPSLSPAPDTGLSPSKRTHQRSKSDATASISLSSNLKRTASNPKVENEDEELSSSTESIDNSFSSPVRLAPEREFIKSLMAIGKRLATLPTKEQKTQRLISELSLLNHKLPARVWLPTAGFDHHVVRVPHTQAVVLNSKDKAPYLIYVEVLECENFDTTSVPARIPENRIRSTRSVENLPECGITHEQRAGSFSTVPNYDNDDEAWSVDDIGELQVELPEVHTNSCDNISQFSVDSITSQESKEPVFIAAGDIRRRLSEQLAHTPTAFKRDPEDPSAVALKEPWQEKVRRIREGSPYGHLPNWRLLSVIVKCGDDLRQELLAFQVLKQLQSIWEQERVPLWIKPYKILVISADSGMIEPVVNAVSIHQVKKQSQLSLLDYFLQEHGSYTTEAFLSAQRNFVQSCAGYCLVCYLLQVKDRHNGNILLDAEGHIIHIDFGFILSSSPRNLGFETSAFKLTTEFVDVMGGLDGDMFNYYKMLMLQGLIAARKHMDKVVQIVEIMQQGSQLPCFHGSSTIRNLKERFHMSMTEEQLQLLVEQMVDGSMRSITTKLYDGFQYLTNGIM
Assay [4] addresses T2, Serine/threonine-protein kinase PLK4 (Homo sapiens) (UniProt O00444).
T2 sequence (whole entry): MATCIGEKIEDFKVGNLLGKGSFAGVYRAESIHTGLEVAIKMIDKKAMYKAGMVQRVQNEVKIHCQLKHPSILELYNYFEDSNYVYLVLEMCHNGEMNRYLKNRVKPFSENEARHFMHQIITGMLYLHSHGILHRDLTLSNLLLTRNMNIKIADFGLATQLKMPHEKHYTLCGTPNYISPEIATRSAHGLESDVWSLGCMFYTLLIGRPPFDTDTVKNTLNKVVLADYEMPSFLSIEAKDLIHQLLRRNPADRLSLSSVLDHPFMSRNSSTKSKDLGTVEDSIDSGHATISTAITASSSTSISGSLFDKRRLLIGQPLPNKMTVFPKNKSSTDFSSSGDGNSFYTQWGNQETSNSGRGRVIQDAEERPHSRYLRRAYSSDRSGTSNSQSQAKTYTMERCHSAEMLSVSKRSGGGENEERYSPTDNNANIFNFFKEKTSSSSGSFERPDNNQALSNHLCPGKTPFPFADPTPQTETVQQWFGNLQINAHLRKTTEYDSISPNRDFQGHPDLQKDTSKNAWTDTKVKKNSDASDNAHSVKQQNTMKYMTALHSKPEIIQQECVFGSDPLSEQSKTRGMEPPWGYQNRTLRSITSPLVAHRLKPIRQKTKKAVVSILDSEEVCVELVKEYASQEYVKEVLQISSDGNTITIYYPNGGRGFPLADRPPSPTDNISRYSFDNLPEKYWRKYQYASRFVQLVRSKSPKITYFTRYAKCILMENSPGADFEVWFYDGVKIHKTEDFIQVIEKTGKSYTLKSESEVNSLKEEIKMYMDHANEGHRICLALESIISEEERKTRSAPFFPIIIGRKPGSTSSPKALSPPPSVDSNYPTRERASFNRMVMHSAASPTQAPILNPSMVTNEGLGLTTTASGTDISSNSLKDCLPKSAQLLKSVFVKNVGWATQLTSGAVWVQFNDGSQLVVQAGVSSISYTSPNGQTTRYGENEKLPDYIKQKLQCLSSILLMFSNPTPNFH
Description: Selectivity interaction (KinomeScan (DiscoverX)) EUB0000666a PLK4. Conditions: at 10 µM.

The target of assay [5] is Mast/stem cell growth factor receptor Kit (Homo sapiens, UniProt P10721). Kind of assay: Selectivity interaction (KinomeScan (DiscoverX)) EUB0000607a KIT. Conditions: at 10 µM.
Chain of Mast/stem cell growth factor receptor Kit (P10721 whole entry): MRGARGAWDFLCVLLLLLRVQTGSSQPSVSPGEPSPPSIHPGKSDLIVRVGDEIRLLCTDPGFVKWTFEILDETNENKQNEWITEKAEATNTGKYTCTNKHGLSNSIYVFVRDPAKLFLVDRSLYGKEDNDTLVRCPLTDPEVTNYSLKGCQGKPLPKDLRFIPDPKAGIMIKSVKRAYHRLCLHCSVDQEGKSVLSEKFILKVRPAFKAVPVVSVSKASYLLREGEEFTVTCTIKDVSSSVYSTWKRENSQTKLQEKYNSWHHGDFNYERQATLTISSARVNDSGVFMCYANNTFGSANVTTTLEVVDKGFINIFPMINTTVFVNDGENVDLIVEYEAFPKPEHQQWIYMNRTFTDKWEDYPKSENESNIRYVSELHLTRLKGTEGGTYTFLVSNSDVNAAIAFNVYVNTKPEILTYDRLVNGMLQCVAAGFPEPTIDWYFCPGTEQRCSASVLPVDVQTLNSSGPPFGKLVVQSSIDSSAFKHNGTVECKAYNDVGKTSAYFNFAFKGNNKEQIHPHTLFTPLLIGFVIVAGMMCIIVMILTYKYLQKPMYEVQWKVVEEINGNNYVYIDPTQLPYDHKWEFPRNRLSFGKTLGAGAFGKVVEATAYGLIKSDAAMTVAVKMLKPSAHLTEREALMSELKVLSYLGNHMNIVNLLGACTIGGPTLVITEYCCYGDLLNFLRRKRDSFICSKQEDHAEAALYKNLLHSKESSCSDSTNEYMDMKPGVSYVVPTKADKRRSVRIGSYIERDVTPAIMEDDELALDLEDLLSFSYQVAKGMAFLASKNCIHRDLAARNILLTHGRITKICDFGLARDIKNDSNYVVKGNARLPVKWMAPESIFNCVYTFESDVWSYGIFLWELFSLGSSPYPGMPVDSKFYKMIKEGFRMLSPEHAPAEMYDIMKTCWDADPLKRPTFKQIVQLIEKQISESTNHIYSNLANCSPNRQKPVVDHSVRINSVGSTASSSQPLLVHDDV
Assay [6] addresses Tyrosine-protein kinase Fyn (Homo sapiens) (UniProt P06241). Kind of assay: Selectivity interaction (ActivX KiNativ screen (kinase selectivity in THP-1 cell lysates)) EUB0000639a FYN. Format: subcellular. Conditions: lysate.
The target of assay [7] is T3, Serine/threonine-protein kinase DCLK2 (Homo sapiens) (UniProt Q8N568).
T3 sequence (whole entry): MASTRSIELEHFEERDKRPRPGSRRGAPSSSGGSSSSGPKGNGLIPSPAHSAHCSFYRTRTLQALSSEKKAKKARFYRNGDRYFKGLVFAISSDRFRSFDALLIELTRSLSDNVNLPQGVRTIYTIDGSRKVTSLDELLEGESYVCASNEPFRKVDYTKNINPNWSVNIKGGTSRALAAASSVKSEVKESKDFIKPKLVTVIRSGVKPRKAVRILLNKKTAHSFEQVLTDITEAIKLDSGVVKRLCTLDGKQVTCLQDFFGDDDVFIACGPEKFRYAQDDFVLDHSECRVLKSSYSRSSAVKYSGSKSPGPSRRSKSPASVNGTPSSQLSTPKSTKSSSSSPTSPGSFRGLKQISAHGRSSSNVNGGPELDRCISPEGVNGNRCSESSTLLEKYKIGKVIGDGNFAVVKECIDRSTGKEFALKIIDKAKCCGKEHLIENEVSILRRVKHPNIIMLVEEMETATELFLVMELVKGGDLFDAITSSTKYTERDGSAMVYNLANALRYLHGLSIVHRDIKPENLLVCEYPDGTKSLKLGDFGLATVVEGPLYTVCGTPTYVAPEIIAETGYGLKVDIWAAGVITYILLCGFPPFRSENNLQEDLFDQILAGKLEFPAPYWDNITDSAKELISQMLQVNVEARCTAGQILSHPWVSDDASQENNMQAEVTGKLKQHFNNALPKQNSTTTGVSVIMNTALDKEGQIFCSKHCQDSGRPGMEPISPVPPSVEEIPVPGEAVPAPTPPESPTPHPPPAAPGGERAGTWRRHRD
Particulars: at 10 µM.

Chain of Tyrosine-protein kinase Fyn (Homo sapiens) (P06241 2-537 limits assumed): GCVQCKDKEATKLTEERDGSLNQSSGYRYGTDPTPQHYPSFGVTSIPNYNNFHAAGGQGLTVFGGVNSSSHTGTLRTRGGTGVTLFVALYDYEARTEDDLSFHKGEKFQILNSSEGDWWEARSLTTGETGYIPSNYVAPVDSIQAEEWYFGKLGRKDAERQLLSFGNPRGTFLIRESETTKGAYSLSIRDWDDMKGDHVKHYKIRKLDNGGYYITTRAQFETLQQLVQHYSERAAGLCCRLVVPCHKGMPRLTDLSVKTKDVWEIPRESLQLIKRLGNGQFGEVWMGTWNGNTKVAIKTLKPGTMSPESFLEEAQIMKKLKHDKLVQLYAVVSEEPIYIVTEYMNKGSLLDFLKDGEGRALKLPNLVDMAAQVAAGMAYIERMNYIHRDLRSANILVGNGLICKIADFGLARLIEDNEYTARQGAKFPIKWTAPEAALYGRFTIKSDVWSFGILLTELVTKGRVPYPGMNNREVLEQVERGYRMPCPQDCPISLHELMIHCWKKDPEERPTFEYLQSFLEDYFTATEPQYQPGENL
Chain of Serine/threonine-protein kinase B-raf (Homo sapiens), P15056 [V600E] (P15056 whole entry V600E): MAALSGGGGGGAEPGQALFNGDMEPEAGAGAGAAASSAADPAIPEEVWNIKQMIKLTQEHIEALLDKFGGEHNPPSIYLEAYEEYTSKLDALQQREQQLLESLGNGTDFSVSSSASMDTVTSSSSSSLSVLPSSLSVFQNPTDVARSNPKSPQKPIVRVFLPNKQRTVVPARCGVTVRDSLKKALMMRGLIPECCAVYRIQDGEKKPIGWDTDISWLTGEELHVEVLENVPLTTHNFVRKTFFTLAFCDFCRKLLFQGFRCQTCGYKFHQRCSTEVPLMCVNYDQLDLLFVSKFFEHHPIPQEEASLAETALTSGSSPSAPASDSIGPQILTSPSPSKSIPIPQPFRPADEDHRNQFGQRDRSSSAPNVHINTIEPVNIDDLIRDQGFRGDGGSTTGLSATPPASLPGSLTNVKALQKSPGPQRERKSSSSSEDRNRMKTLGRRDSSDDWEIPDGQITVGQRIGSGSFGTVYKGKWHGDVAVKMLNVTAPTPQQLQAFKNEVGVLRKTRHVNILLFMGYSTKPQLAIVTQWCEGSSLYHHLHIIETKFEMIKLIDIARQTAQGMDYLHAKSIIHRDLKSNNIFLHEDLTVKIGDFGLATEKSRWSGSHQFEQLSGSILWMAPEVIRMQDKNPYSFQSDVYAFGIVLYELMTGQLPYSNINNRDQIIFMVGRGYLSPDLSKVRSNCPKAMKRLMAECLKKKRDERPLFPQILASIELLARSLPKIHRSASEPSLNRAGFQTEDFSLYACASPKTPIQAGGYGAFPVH

Regarding `CN(C)CCOc1ccc(-c2nc(-c3ccncc3)c(-c3ccc4c(c3)CC/C4=N\O)[nH]2)cc1`, the results for the % of control in assay [1] and in assay [2] were 0% and 88%, respectively.
With `C=CC(=O)Nc1cc(-n2c(=O)ccc3cnc4ccc(-c5ccc(NS(C)(=O)=O)cc5)cc4c32)ccc1C`, the results for the % of control in assay [3] (at 1 µM) and in assay [3] (at 10 µM) were 79% and 20%, respectively.
`O=C(NOC[C@H](O)CO)c1ccc(F)c(F)c1Nc1ccc(I)cc1F`: the % of control in assay [4] is 86%.
`CNC(=O)Nc1ccc(-c2nc(N3CC4CCC(C3)O4)c3cnn(C4CCC5(CC4)OCCO5)c3n2)cc1` returned a % of control in assay [5] of 93%.
Consider `CC[C@@H]1[C@H](F)C(=O)N[C@@H]1COc1nccc2cc(C(N)=O)c(OC)cc12` [ZIMLOVISERTIB], for which the % of inhibition in assay [6] (at 0.01 µM) is -12.7%; in assay [6] (at 0.04 µM) it was -16.1%; in assay [6] (at 0.2 µM) it was -5.4%; in assay [6] (at 1 µM) it was -3.3%; in assay [6] (at 5 µM) it was -18.6%.
`COCC(=O)NC/C=C/c1ccc2ncnc(Nc3ccc(Oc4ccc(C)nc4)c(C)c3)c2c1` [CP-724714] showed a % of control in assay [7] of 100%.

(Values after ChEMBL document CHEMBL5465560, “Selectivity Literature for EUbOPEN Chemogenomic Library” (2024).)
